Data published in US9670224B2, “Forsythiaside sulfate and derivatives thereof, preparation method and application thereof” (priority 2013, dated 2017).
Counter-ions that a name gives are not always drawn. Like-named read-outs stand apart in the source and are kept apart here. Marks after values point to notes of the source that are not given here.

Key:
Coxsackievirus B3 (CVB3) = assay: Impact of the drug on virus-induced cytopathy (CPE, MTT), CVB3; assay type: cell-based; conditions: Vero cells, 100TCID50, drug at about the maximum non-toxic concentration, 72 h
Adenovirus (AdV) = assay: Impact of the drug on virus-induced cytopathy (CPE, MTT), ADV; assay type: cell-based; conditions: Vero cells, 100TCID50, drug at about the maximum non-toxic concentration, 72 h
Vero cell = assay: Cytotoxicity test on Vero cells (MTT); assay type: cell-based, African green monkey; conditions: 72 h, Probit regression
Method: Cytotoxicity test: drugs are diluted according to the concentrations indicated in Table 1 for the determination of cytotoxicity.
The aforementioned drugs which are diluted with a maintenance solution (DMEM containing 2% or fetal bovine serum) to different concentrations are dropwise added to the Vero monolayer cell, each well is 0.2ml, there are 6 duplicate wells for each concentration, 6 wells for normal control (normal control group without adding drugs) and 6 wells for blank control (culture medium) are additionally provided, those are placed in an 5% CO2 incubator at 37° C. for culturing, observing CPE with an inverted microscope every day and recording. After 72 h, 20 μL (5 mg·mL^−1) of MTT solution is added in each well, and continues to be incubated for 4 h, the culture broth in each well is sucked and discarded, 100 μL of DMSO is added in each well, and is shaken for 5 min, measuring the OD value at 492 nm to calculate cell survival rate. In SPSS 18.0 statistical software, the cell survival rate is subjected to Probit regression analysis to calculate the maximum non-toxic concentration (TC0) and half toxic concentration (TC50) of the drug on the Vero cell.

Enterovirus EV71 = assay: Impact of the drug on virus-induced cytopathy (CPE, MTT), EV71; assay type: cell-based; conditions: Vero cells, 100TCID50, drug at about the maximum non-toxic concentration, 72 h
[1] = Solubility of the isolated solid; conditions: water and ethanol
[2] = test system: influenza virus infected mice; assay type: in vivo, Kunming mice; conditions: 5 days
[3] = test system: influenza virus pneumonia model mice; assay: Observation of lung histomorphology, influenza virus pneumonia mice; assay type: in vivo, Kunming mice; conditions: 3.25 mg/kg/d to 13 mg/kg/d, fifth day, HE staining
Method: A degreasing cotton is placed in a 200-300 mL beaker, in which a suitable amount of ether (just for making cotton wet) is added, the beaker containing the degreasing cotton is inverted upside down, the mice are extremely excited when anesthetized therein, and are made to lie on their backs when clearly weak, the mice are infected nasally with 15LD50 influenza virus a .d parainfluenza virus at 0.03 ml/nostril, and the virus suspension is replaced with normal saline in the normal control group.
The administration is performed once a day for five consecutive days. The virus control group is drenched with normal saline of the same volume.
Various mice lungs are respectively taken in the fifth day after treatment; general pathological changes of their viscera are observed by naked eyes and are recorded. The lungs are cleaned by rinsing with normal saline and moisture thereon is sucked up by using filter paper; a portion of the lung is fixed with 10% formaldehyde, paraffin-embedded, sliced and HE-strained; observation and photographing are performed under a microscope.

[4] = test system: parainfluenza virus infected mice; assay type: in vivo, Kunming mice
[5] = test system: influenza virus infected mice; assay type: in vivo, Kunming mice; conditions: lung suspension, 5 days
[6] = test system: parainfluenza virus infected mice; assay type: in vivo, Kunming mice; remark: listed apart in the source
[7] = test system: parainfluenza virus pneumonia model mice; assay: Observation of lung histomorphology, parainfluenza virus pneumonia mice; assay type: in vivo, Kunming mice; conditions: 3.25 mg/kg/d to 13 mg/kg/d, fifth day, HE staining
[8] = test system: Respiratory syncytial virus (RSV); assay: Impact of the drug on virus-induced cytopathy (CPE, MTT), RSV; assay type: cell-based; conditions: Vero cells, 100TCID50, drug at about the maximum non-toxic concentration, 72 h
Parainfluenza virus = assay: Impact of the drug on virus-induced cytopathy (CPE, MTT), parainfluenza virus; assay type: cell-based; conditions: Vero cells, 100TCID50, drug at about the maximum non-toxic concentration, 72 h
[9] = test system: Herpes simplex virus type-1 (HSV-1); assay: Impact of the drug on virus-induced cytopathy (CPE, MTT), HSV-I; assay type: cell-based; conditions: Vero cells, 100TCID50, drug at about the maximum non-toxic concentration, 72 h
[10] = test system: Coxsackievirus A16 (CoxA16); assay: Impact of the drug on virus-induced cytopathy (CPE, MTT), CoxA16; assay type: cell-based; conditions: Vero cells, 100TCID50, drug at about the maximum non-toxic concentration, 72 h
Influenza virus = assay: Impact of the drug on virus-induced cytopathy (CPE, MTT), influenza virus; assay type: cell-based
[11] = high dosage 13.0 mg/kg/d intragastric
[12] = low dosage 3.25 mg/kg/d intragastric
[13] = parainfluenza virus infected mice, high dosage 13.0 mg/kg/d intragastric, 5 days
[14] = parainfluenza virus infected mice, low dosage 3.25 mg/kg/d intragastric, 5 days

Row | SMILES | antiviral effective rate (ER %), CVB3 (Coxsackievirus B3 (CVB3)) [%] | antiviral effective rate (ER %), ADV (Adenovirus (AdV)) | half toxic concentration (TC50) (Vero cell) [µg/mL] | the maximum non-toxic concentration (TC0) (Vero cell) [g/L] | antiviral effective rate (ER %), EV71 (Enterovirus EV71) | solubility [1] | antiviral effective rate (ER %), RSV [8] | antiviral effective rate (ER %), Parainfluenza virus (Parainfluenza virus) | antiviral effective rate (ER %), HSV-I [9] | antiviral effective rate (ER %), CoxA16 [10] [%] | other results
1 | COc1ccc([C@H]2OCC3C2CO[C@H]3c2ccc(OC)c(OS(=O)(=O)O)c2)cc1OC.N (stereo partly shown) | 7.10 | 20.88* % | 555 | 0.105 | 35.12% | soluble in water and ethanol | – | – | – | – | –
2 | COc1ccc([C@H]2OCC3C2CO[C@H]3c2ccc(OC)c(OS(=O)(=O)O)c2)cc1OC (stereo partly shown) [forsythiaside sodium sulfate] | 10.55 | 20.91* % | 685 | 0.128 | 50.21% | soluble in water and ethanol | – | – | – | – | Lung index (X ± S) [2, 11]: 1.1809 ± .057; Lung index inhibition rate (%) [2, 11]: 20.73%; Lung index (X ± S) [2, 12]: 1.344 ± 0.035; Lung index inhibition rate (%) [2, 12]: 9.69%; lung histology / pulmonary tissue pathology [3]: significantly improve the pulmonary tissue pathology; Lung index (X ± S) ([4]; mouse, in vivo): 1.303 ± 0.062; Lung index inhibition rate (%) ([4]; mouse, in vivo): 18.46%; Lung index (X ± S) [4, 13]: 1.331 ± 0.073; Lung index inhibition rate (%) [4, 13]: 16.73%; Lung index (X ± S) [4, 14]: 1.311 ± 0.049; Lung index inhibition rate (%) [4, 14]: 17.96%; Hemagglutination titer (InX) ([5]; high dosage 13.0 mg/kg/d): 20.07 ± 0.646; Hemagglutination titer (InX) ([5]; low dosage 3.25 mg/kg/d): 23.93 ± 1.392; Hemagglutination titer (InX) ([6]; lung suspension, parainfluenza virus infected mice, high dosage 13.0 mg/kg/d, 5 days): 19.82 ± 0.981; Hemagglutination titer (InX) ([6]; lung suspension, parainfluenza virus infected mice, low dosage 3.25 mg/kg/d, 5 days): 23.26 ± 0.991; Hemagglutination titer (InX) ([6]; mouse, in vivo): 21.01 ± 0.614; lung histology / pulmonary tissue pathology [7]: significantly improve the pulmonary tissue pathology
3 | CCOC(=O)C1=C[C@@H](OC(CC)CC)[C@H](NC(C)=O)[C@@H](N)C1 [oseltamivir phosphate, Oseltamivir phosphate, reference compound] | 1.64 | 10.31% | 832 | 0.28 | 51.86% | – | 37.60% | 94.52** % | 66.56** % | 2.95 | antiviral effective rate (ER %), Influenza virus (Influenza virus; Vero cells, 100TCID50, drug at about the maximum non-toxic concentration, 72 h, MTT): 81.76** %
4 | NC(=O)c1ncn([C@@H]2O[C@H](CO)[C@@H](O)[C@H]2O)n1 [ribavirin, Ribavirin, reference compound] | 13.44 | 0.43% | – | – | 4.25** % | – | 50.08* % | 97.56** % | 62.92** % | 0.70 | Hemagglutination titer (InX) ([5]; 58.5 mg/kg/d): 21.13 ± 0.986; Hemagglutination titer (InX) ([6]; lung suspension, parainfluenza virus infected mice, 58.5 mg/kg/d, 5 days): 26.73 ± 1.193; antiviral effective rate (ER %), Influenza virus (Influenza virus): 57.49** %
